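Each compound was tested at five concentrations against cells in 96-well plates for 48 hours. TGI: concentration producing complete growth inhibition.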
Legend:
Assay in all cases: inhibition of tumour cell growth, NCI panel, 48 h
HCT-15 colon = tested on: HCT-15 colon
COLO 205 colon = tested on: COLO 205 colon
NCI-H23 lung = tested on: NCI-H23 lung
UO-31 renal = tested on: UO-31 renal
A549 NSCLC = tested on: A549 NSCLC
SF-295 CNS = tested on: SF-295 CNS
M14 melanoma = tested on: M14 melanoma
SK-MEL-2 melanoma = tested on: SK-MEL-2 melanoma
MDA-MB-231 breast = tested on: MDA-MB-231 breast
SW-620 colon = tested on: SW-620 colon
SR leukemia = tested on: SR leukemia
NCI-H522 lung = tested on: NCI-H522 lung
EKVX NSCLC = tested on: EKVX NSCLC
LOX IMVI melanoma = tested on: LOX IMVI melanoma
U251 CNS = tested on: U251 CNS
SK-OV-3 ovarian = tested on: SK-OV-3 ovarian
NCI-H226 lung = tested on: NCI-H226 lung
SN12C renal = tested on: SN12C renal
TK-10 renal = tested on: TK-10 renal
OVCAR-8 ovarian = tested on: OVCAR-8 ovarian
PC-3 prostate = tested on: PC-3 prostate
HOP-62 NSCLC = tested on: HOP-62 NSCLC
SNB-19 CNS = tested on: SNB-19 CNS
RPMI-8226 leukemia = tested on: RPMI-8226 leukemia
SNB-75 CNS = tested on: SNB-75 CNS
A498 renal = tested on: A498 renal
OVCAR-3 ovarian = tested on: OVCAR-3 ovarian
IGROV1 ovarian = tested on: IGROV1 ovarian
SK-MEL-28 melanoma = tested on: SK-MEL-28 melanoma
MDA-MB-435 = tested on: MDA-MB-435
OVCAR-5 ovarian = tested on: OVCAR-5 ovarian
MCF7 breast = tested on: MCF7 breast
CAKI-1 renal = tested on: CAKI-1 renal
ACHN renal = tested on: ACHN renal
HCT-116 colon = tested on: HCT-116 colon
UACC-257 melanoma = tested on: UACC-257 melanoma
NCI/ADR-RES ovarian = tested on: NCI/ADR-RES ovarian
SK-MEL-5 melanoma = tested on: SK-MEL-5 melanoma
786-0 renal = tested on: 786-0 renal
OVCAR-4 ovarian = tested on: OVCAR-4 ovarian
SF-539 CNS = tested on: SF-539 CNS
HL-60(TB) leukemia = tested on: HL-60(TB) leukemia
UACC-62 melanoma = tested on: UACC-62 melanoma
T-47D breast = tested on: T-47D breast
HCC-2998 colon = tested on: HCC-2998 colon
MDA-N = tested on: MDA-N
HT29 colon = tested on: HT29 colon
MOLT-4 leukemia = tested on: MOLT-4 leukemia
KM12 colon = tested on: KM12 colon
BT-549 breast = tested on: BT-549 breast
K-562 leukemia = tested on: K-562 leukemia
CCRF-CEM leukemia = tested on: CCRF-CEM leukemia
MALME-3M melanoma = tested on: MALME-3M melanoma
NCI-H460 lung = tested on: NCI-H460 lung
HOP-92 NSCLC = tested on: HOP-92 NSCLC
DU-145 prostate = tested on: DU-145 prostate
SF-268 CNS = tested on: SF-268 CNS
HS 578T breast = tested on: HS 578T breast
RXF 393 renal = tested on: RXF 393 renal

Question: What does the source list for O=c1c2ccccc2[nH]c2c(Cl)cc(Cl)c(NC3CCCCC3)c12?
Answer: TGI (HCT-15 colon): > 100 µM; TGI (COLO 205 colon): > 100 µM; TGI (NCI-H23 lung): 36.8 µM; TGI (UO-31 renal): 33.5 µM; TGI (A549 NSCLC): > 100 µM; TGI (SF-295 CNS): > 100 µM; TGI (M14 melanoma): 47.7 µM; TGI (SK-MEL-2 melanoma): 41.9 µM; TGI (MDA-MB-231 breast): 74.3 µM; TGI (SW-620 colon): 49 µM; TGI (SR leukemia): > 100 µM; TGI (NCI-H522 lung): 44 µM; TGI (EKVX NSCLC): 76.8 µM; TGI (LOX IMVI melanoma): > 100 µM; TGI (U251 CNS): 36.9 µM; TGI (SK-OV-3 ovarian): > 100 µM; TGI (NCI-H226 lung): 44.4 µM; TGI (SN12C renal): 55.3 µM; TGI (TK-10 renal): 61.3 µM; TGI (OVCAR-8 ovarian): 44.8 µM; TGI (PC-3 prostate): 60.1 µM; TGI (HOP-62 NSCLC): 60.8 µM; TGI (SNB-19 CNS): 38.8 µM; TGI (RPMI-8226 leukemia): 85 µM; TGI (SNB-75 CNS): 83.6 µM; TGI (A498 renal): 43.3 µM; TGI (OVCAR-3 ovarian): 28 µM; TGI (IGROV1 ovarian): 96.2 µM; TGI (SK-MEL-28 melanoma): > 100 µM; TGI (MDA-MB-435): 43.5 µM; TGI (OVCAR-5 ovarian): 53.9 µM; TGI (MCF7 breast): 76.2 µM; TGI (CAKI-1 renal): 83.2 µM; TGI (ACHN renal): 37.7 µM; TGI (HCT-116 colon): > 100 µM; TGI (UACC-257 melanoma): 69.5 µM; TGI (NCI/ADR-RES ovarian): 44 µM; TGI (SK-MEL-5 melanoma): > 100 µM; TGI (786-0 renal): > 100 µM; TGI (OVCAR-4 ovarian): > 100 µM; TGI (SF-539 CNS): 57.8 µM; TGI (HL-60(TB) leukemia): 43.9 µM; TGI (UACC-62 melanoma): 36.6 µM; TGI (T-47D breast): > 100 µM; TGI (HCC-2998 colon): 89.9 µM; TGI (MDA-N): 79.1 µM; TGI (HT29 colon): 30.6 µM; TGI (MOLT-4 leukemia): 86.9 µM; TGI (KM12 colon): 32.4 µM; TGI (BT-549 breast): 67.3 µM; TGI (K-562 leukemia): > 100 µM

Question: Which results are given for Cc1cc2c(cc1C(=O)CCC(=O)O)CC1(C2)Cc2cc(C)c(C(=O)CCC(=O)O)cc2C1?
Answer: TGI (CCRF-CEM leukemia): > 100 µM; TGI (HCT-15 colon): > 100 µM; TGI (COLO 205 colon): > 100 µM; TGI (NCI-H23 lung): > 100 µM; TGI (UO-31 renal): > 100 µM; TGI (A549 NSCLC): > 100 µM; TGI (MALME-3M melanoma): > 100 µM; TGI (NCI-H460 lung): > 100 µM; TGI (SF-295 CNS): > 100 µM; TGI (M14 melanoma): > 100 µM; TGI (SK-MEL-2 melanoma): > 100 µM; TGI (MDA-MB-231 breast): > 100 µM; TGI (SW-620 colon): > 100 µM; TGI (SR leukemia): > 100 µM; TGI (NCI-H522 lung): > 100 µM; TGI (EKVX NSCLC): > 100 µM; TGI (LOX IMVI melanoma): > 100 µM; TGI (U251 CNS): > 100 µM; TGI (SK-OV-3 ovarian): > 100 µM; TGI (NCI-H226 lung): > 100 µM; TGI (SN12C renal): > 100 µM; TGI (TK-10 renal): > 100 µM; TGI (OVCAR-8 ovarian): > 100 µM; TGI (PC-3 prostate): > 100 µM; TGI (HOP-62 NSCLC): > 100 µM; TGI (SNB-19 CNS): > 100 µM; TGI (RPMI-8226 leukemia): > 100 µM; TGI (SNB-75 CNS): > 100 µM; TGI (A498 renal): > 100 µM; TGI (OVCAR-3 ovarian): > 100 µM; TGI (HOP-92 NSCLC): > 100 µM; TGI (IGROV1 ovarian): > 100 µM; TGI (DU-145 prostate): > 100 µM; TGI (SF-268 CNS): > 100 µM; TGI (SK-MEL-28 melanoma): > 100 µM; TGI (HS 578T breast): > 100 µM; TGI (MDA-MB-435): > 100 µM; TGI (OVCAR-5 ovarian): > 100 µM; TGI (MCF7 breast): > 100 µM; TGI (CAKI-1 renal): > 100 µM; TGI (ACHN renal): > 100 µM; TGI (HCT-116 colon): > 100 µM; TGI (UACC-257 melanoma): > 100 µM; TGI (NCI/ADR-RES ovarian): > 100 µM; TGI (SK-MEL-5 melanoma): > 100 µM; TGI (786-0 renal): > 100 µM; TGI (OVCAR-4 ovarian): > 100 µM; TGI (SF-539 CNS): > 100 µM; TGI (RXF 393 renal): > 100 µM; TGI (HL-60(TB) leukemia): > 100 µM; TGI (T-47D breast): > 100 µM; TGI (HCC-2998 colon): > 100 µM; TGI (MDA-N): > 100 µM; TGI (HT29 colon): > 100 µM; TGI (MOLT-4 leukemia): > 100 µM; TGI (KM12 colon): > 100 µM; TGI (K-562 leukemia): > 100 µM
